Data: patent publication US20080058373A1, “Compositions and Methods for Treating or Preventing Glaucoma or Progression Thereof” (priority 2006, published 2008)

Legend:
Leukocytes (PMN) = Leukocytes (PMN) measurement in aqueous humor, rabbit paracentesis model; format: in vivo; conditions: 0.1% topical; second paracentesis; group mean
Protocol: Each rabbit was placed in a restraint device and tagged with the alphanumeric code. The formulations were instilled (50 μl) into the conjunctival sac of both eyes 180, 120, 90 and 30 min before the first paracentesis; then 15, 30, 90 min after the first paracentesis. To perform the first paracentesis the animals were anaesthetized by intravenous injection of 5 mg/kg Zoletil® (Virbac; 2.5 mg/kg tiletamine HCl and 2.5 mg/kg zolazepam HCl) and one drop of local anesthetic (Novesina®, Novartis) was administered to the eye. Anterior chamber paracentesis was performed with a 26 G needle attached to a tuberculin syringe; the needle was introduced into the anterior chamber through the cornea, taking care not to damage the tissues. Two hours after the first paracentesis, the animals were sacrificed with 0.4 ml Tanax® (Intervet International B.V.) and the second paracentesis was performed. About 100 μl of aqueous humor were removed at the second paracentesis. Aqueous humor was immediately split in four aliquots and stored at −80° C. until analysis. Then both eyes were enucleated and the iris-ciliary body was carefully excised, placed in polypropylene tubes, and stored at −80° C. until analysis.
For the determination of the number of leukocytes we used a haemocytometer (Improved Neubauer Chamber; Bright-line, Hausser Scientific) and a Polyvar 2 microscope (Reichert-Jung).

[1] = tested on: New Zealand White rabbits; assay: Intraocular pressure (IOP) in rabbits, topical dosing four times daily; format: in vivo; conditions: 0.1% (Group A)
Protocol: Seventy-five rabbits underwent two weeks of IOP training to condition them for IOP measurement. IOP was determined for both eyes of each animal using a Medtronic Solan, Model 30 classic pneumatonometer. Proparacaine hydrochloride 0.5% (1 drop) was delivered to each eye prior to IOP measurement. A two-point diurnal curve was established: IOP was recorded on Monday, Wednesday, and Friday of each week, at 8 a.m. and 12 p.m., with a ±1 hour range for each of these times. The time of the measurements was recorded.
On Days 1-31, animals received daily topical doses of the appropriate test article into the right eye. Animals were dosed four times per day, with doses administered 2 hours apart. Doses were administered using a calibrated 50-μL pipette. The eyelids were held close for 10 seconds immediately following dosing. The time of each dose administration was recorded.
Intraocular pressure (“IOP”) was determined for both eyes of each animal on Days 3, 5, 10, 12, 16, 18, 22, 24, 26, 30, and 32. IOP was evaluated with a Medtronic Solan, Model 30 classic pneumatonometer. Proparacaine hydrochloride 0.5% (1 drop) was delivered to each eye prior to IOP measurement. IOP was measured on Monday, Wednesday, and Friday of each week. A two-point diurnal curve was established: IOP was recorded at 8 a.m. and 12 p.m. on Day 3, and at 8 a.m. and 2 p.m. on later days, with a ±1 hour range for each of these times. The time of the measurements was recorded.
Descriptive statistics were prepared for IOP data of each treatment group (left and right eyes separately) at each measurement interval. The statistics included the number of observations (“N”), mean, standard deviation (“STD”), and standard error (“SEM”). Statistical analyses were conducted on IOP results using Statistical Analysis Systems (SAS Institute, Inc., Cary, N.C., V8.0). Parameters were evaluated using analysis of variance/GLM Procedure followed by Tukey's Standardized Range Test (Tukey, 1985) for post hoc comparisons of group means. The level of significance was set at a probability of p<0.05 for all statistical procedures. Group IOP means were compared at each interval, with left and right eyes compared separately.

SMILES: C[C@@H]1C[C@H]2[C@@H]3CCC4=CC(=O)C=C[C@]4(C)[C@@]3(F)[C@@H](O)C[C@]2(C)[C@@]1(O)C(=O)CO [dexamethasone, reference compound]
- PMN numbers in aqueous humor, Mean (Leukocytes (PMN)): 30.000 number/μl
- Intraocular Pressure in Untreated Left Eyes (A.M. Readings), MEAN ([1]; Day 3): 24.3 mmHg
- Intraocular Pressure in Untreated Left Eyes (A.M. Readings), MEAN ([1]; Day 5): 24.3 mmHg
- Intraocular Pressure in Untreated Left Eyes (A.M. Readings), MEAN ([1]; Day 10): 26.9 mmHg
- Intraocular Pressure in Untreated Left Eyes (A.M. Readings), MEAN ([1]; Day 12): 26.2 mmHg
- Intraocular Pressure in Untreated Left Eyes (A.M. Readings), MEAN ([1]; Day 16): 25.0 mmHg
- Intraocular Pressure in Untreated Left Eyes (A.M. Readings), MEAN ([1]; Day 18): 24.2 mmHg
- Intraocular Pressure in Untreated Left Eyes (A.M. Readings), MEAN ([1]; Day 22): 25.0 mmHg
- Intraocular Pressure in Untreated Left Eyes (A.M. Readings), MEAN ([1]; Day 24): 23.6 mmHg
- Intraocular Pressure in Untreated Left Eyes (A.M. Readings), MEAN ([1]; Day 26): 23.7 mmHg
- Intraocular Pressure in Untreated Left Eyes (A.M. Readings), MEAN ([1]; Day 30): 24.0 mmHg
- Intraocular Pressure in Untreated Left Eyes (A.M. Readings), MEAN ([1]; Day 32): 25.5 mmHg
- Intraocular Pressure in Untreated Left Eyes (A.M. Readings), MEAN ([1]; Pre-Study): 24.4 mmHg
